For 22 compounds, IC50 results are on record in patent US8846704B2, “Thiopyrimidine-based compounds and uses thereof” (YM Biosciences Austraila Pty Ltd, priority 2007, dated 2014).

Molecules are shown by their SMILES.

One assay deals with T1, human JAK3 (Homo sapiens, UniProt P52333).
T1 construct: The kinase domain of human JAK3 was amplified; GST (N); made in house; host or cells: Sf9 insect cells (baculovirus)
The assay is described as follows: Alphascreen tyrosine kinase enzyme assay, JAK3 kinase domain. It counts as biochemical. The settings on record: read-out: JAK3 IC50_nM. A digest of the protocol:
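GST-affinity-purified human JAK3 kinase domain (baculovirus/Sf9) was pre-incubated 20 min with compound ([…]) in HEPES pH 7.5 buffer with MgCl2, vanadate and Tween 20. Biotinylated peptide substrate ([…]) and ATP were then added; phosphotyrosine was detected by AlphaScreen PY100 acceptor and streptavidin donor beads after 2–3 h.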

In another assay the test system is CTLL2. The assay is described as follows: Cellular screening, CTLL2 cells, Alamar Blue. The assay is classed as cell-based. To be noted: Mus musculus, CTLL-2, read-out: CTLL2 IC50_nM. The essentials: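 Viability is read with Alamar Blue at 544 nm, the dye added for the final 4-6 hours. Compounds were incubated for 40 hr with CTLL2 cells taken from late-log-phase culture, at 37° C in 5% CO2.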
On the technique in general: The colour change of resazurin is a common sign of viable cells or microbes.

T1 sequence (P52333 822-1111 limits assumed): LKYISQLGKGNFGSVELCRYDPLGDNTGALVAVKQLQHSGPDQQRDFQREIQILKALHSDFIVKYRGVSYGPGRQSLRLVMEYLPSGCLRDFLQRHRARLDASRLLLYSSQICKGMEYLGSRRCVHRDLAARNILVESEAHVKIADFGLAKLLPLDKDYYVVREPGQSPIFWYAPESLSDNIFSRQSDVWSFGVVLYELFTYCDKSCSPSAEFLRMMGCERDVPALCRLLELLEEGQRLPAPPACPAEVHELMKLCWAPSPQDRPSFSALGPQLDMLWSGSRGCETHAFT

For the compound `C=CC(=O)Nc1cccc(Nc2nccc(SC)n2)c1` [Compound 7, N-(3-(4-(methylthio)pyrimidin-2-ylao)phenyl)acrylamide], the IC50 on human JAK3 was under 100 nM; with CTLL2, under 5 µM. For `Cc1cnc(Nc2ccc(N3CCOCC3)cc2)nc1Sc1ccc(N2C(=O)COCC2=O)cc1` [Compound 190, 4-(4-(5-methyl-2-(4-morpholinophenylao)pyrimidin-4-ylthio)phenyl)morpholine-3,5-dione], in that order: under 100 nM and over 20 µM. `Cc1cnc(Nc2ccc(O)cc2)nc1Sc1ccc(N)cc1` [Compound 191, 4-(4-(4-aophenylthio)-5-methylpyrimidin-2-ylao)phenol]: the IC50 was under 500 nM on human JAK3 and under 5 µM in the assay with CTLL2. For the compound `Cc1cnc(Nc2cccc(S)c2)nc1Sc1ccc(NC(=O)CCl)cc1` [Compound 195, 2-chloro-N-(4-(2-(3-mercaptophenylao)-5-methylpyrimidin-4-ylthio)phenyl)acetamide], the IC50 on human JAK3 was under 100 nM; with CTLL2, over 20 µM. With `Cc1cnc(Nc2ccc(N3CCOCC3)cc2)nc1Sc1ccc(N2CCSCC2=O)cc1` [Compound 197, 4-(4-(5-methyl-2-(4-morpholinophenylao)pyrimidin-4-ylthio)phenyl)thiomorpholin-3-one], the figures for the IC50 on human JAK3 and in the assay with CTLL2 were under 100 nM and over 20 µM, respectively. As to `N#Cc1c(N)ncn1Cc1cccc(Sc2ccnc(Nc3ccc(N4CCOCC4)cc3)n2)c1` [Compound 199, 4-ao-1-(3-(2-(4-morpholinophenylao)pyrimidin-4-ylthio)benzyl)-1H-imiazole-5-carbonitrile], the values for the IC50 at human JAK3 and in the assay with CTLL2 were under 500 nM and under 20 µM, respectively. For `N#Cc1ncn(Cc2ccc(Sc3ccnc(Nc4ccc(N5CCOCC5)cc4)n3)cc2)c1N` [Compound 202, 5-ao-1-(4-(2-(4-morpholinophenylao)pyrimidin-4-ylthio)benzyl)-1H-imidazole-4-carbonitrile], in that order: under 500 nM and under 5 µM. For `N#Cc1c(N)ncn1Cc1ccc(Sc2ccnc(Nc3ccc(N4CCOCC4)cc3)n2)cc1` [Compound 203, 4-ao-1-(4-(2-(4-morpholinophenylao)pyrimidin-4-ylthio)benzyl)-1H-imidazole-5-carbonitrile], the IC50 at human JAK3 is under 500 nM; with CTLL2, under 1 µM.

For `c1cc(Sc2ccc(Cn3cncn3)cc2)nc(Nc2ccc(N3CCOCC3)cc2)n1` [Compound 204, 4-(4-((1H-1,2,4-triazol-1-yl)methyl)phenylthio)-N-(4-morpholinophenyl)pyrimidin-2-ae], the IC50 on human JAK3 is under 500 nM; in the assay on CTLL2, under 20 µM.

Consider `NC(=O)c1ccc(Sc2ccnc(Nc3ccc(N4CCOCC4)cc3)n2)cc1` [Compound 207, 4-(2-(4-morpholinophenylao)pyrimidin-4-ylthio)benzamide], for which the IC50 at human JAK3 is under 500 nM.

As to `N#CCc1ccc(Sc2ccnc(Nc3ccc(N4CCOCC4)cc3)n2)cc1` [Compound 210, 2-(4-(2-(4-morpholinophenylao)pyrimidin-4-ylthio)phenyl)acetonitrile], the IC50 on human JAK3 is under 500 nM; in the assay on CTLL2, over 20 µM. Consider `Cc1cnc(Nc2ccc(N3CCOCC3)cc2)nc1Sc1cccc(CO)c1` [Compound 212, (3-(5-methyl-2-(4-morpholinophenylao)pyrimidin-4-ylthio)phenyl)methanol], for which the IC50 was under 500 nM on human JAK3 and over 20 µM in the assay with CTLL2.

Regarding `CON(C)C(=O)c1ccc(Sc2nc(Nc3ccc(N4CCOCC4)cc3)ncc2C)cc1` [Compound 218, N-methoxy-N-methyl-4-(5-methyl-2-(4-morpholinophenylao)pyrimidin-4-ylthio)benzamide], the IC50 was under 500 nM on human JAK3 and over 20 µM in the assay with CTLL2.

As for `Cc1cnc(Nc2ccc(N3CCOCC3)cc2)nc1Sc1ccc(C=O)cc1` [Compound 219, 4-(5-methyl-2-(4-morpholinophenylao)pyrimidin-4-ylthio)benzaldehyde], the figures for the IC50 at human JAK3 and in the assay with CTLL2 were under 500 nM and over 20 µM, respectively.

For `Cc1cnc(Nc2ccc(N3CCOCC3)cc2)nc1Sc1ccc(CO)cc1` [Compound 220, (4-(5-methyl-2-(4-morpholinophenylao)pyrimidin-4-ylthio)phenyl)methanol], the IC50 on human JAK3 is under 100 nM; in the assay with CTLL2, under 1 µM.

With `Cc1cnc(Nc2ccc(N3CCOCC3)cc2)nc1Sc1ccc(CC#N)cc1` [Compound 222, 2-(4-(5-methyl-2-(4-morpholinophenylao)pyrimidin-4-ylthio)phenyl)acetonitrile], the IC50 is under 500 nM at human JAK3 and over 20 µM with CTLL2.

For the compound `Cc1cnc(Nc2ccc(N3CCOCC3)cc2)nc1Sc1ccc(C(C#N)N2CCOCC2)cc1` (stereo not drawn) [Compound 223, 2-(4-(5-methyl-2-(4-morpholinophenylao)pyrimidin-4-ylthio)phenyl)-2-morpholinoacetonitrile], the figures for the IC50 at human JAK3 and in the assay on CTLL2 were under 500 nM and under 5 µM, respectively.

For the compound `Cc1cnc(Nc2ccc(N3CCOCC3)cc2)nc1Sc1ccc(C(=O)N2CCCC2)cc1` [Compound 224, (4-(5-methyl-2-(4-morpholinophenylao)pyrimidin-4-ylthio)phenyl)(pyrrolidin-1-yl)methanone], the figures for the IC50 at human JAK3 and in the assay on CTLL2 were under 500 nM and over 20 µM, respectively.

With `Cc1cnc(Nc2ccc(N3CCOCC3)cc2)nc1Sc1ccc(C(C#N)N2CCN(C)CC2)cc1` (stereo not drawn) [Compound 225, 2-(4-(5-methyl-2-(4-morpholinophenylao)pyrimidin-4-ylthio)phenyl)-2-(4-methylpiperazin-1-yl)acetonitrile], the IC50 on human JAK3 is under 500 nM; with CTLL2, under 5 µM. As for `Cc1cnc(Nc2cccc(NS(C)(=O)=O)c2)nc1Sc1ccc(CO)cc1` [Compound 226, N-(3-(4-(4-(hydroxymethyl)phenylthio)-5-methylpyrimidin-2-ylao)phenyl)methanesulfonamide], on human JAK3, the IC50 was under 500 nM. With `Cc1cnc(Nc2ccc(N3CCOCC3)cc2)nc1Sc1ccc(NC2CCOC2=O)cc1` (stereo not drawn) [Compound 228, 3-(4-(5-methyl-2-(4-morpholinophenylao)pyrimidin-4-ylthio)phenylao)dihydrofuran-2(3H)-one], the IC50 is under 100 nM on human JAK3 and over 20 µM in the assay with CTLL2.

Regarding `Cc1cnc(Nc2ccc(N3CCOCC3)cc2)nc1Sc1ccc(NC(=O)CO)cc1` [Compound 229, 2-hydroxy-N-(4-(5-methyl-2-(4-morpholinophenylao)pyrimidin-4-ylthio)phenyl)acetamide], the results for the IC50 on human JAK3 and in the assay on CTLL2 were under 500 nM and under 20 µM, respectively.
